Where two headings read alike, the source gives them in different places.
Experiments:
[1] = test system: tobacco into which bchH gene was introduced; test: Leaf piece chlorophyll test, tobacco into which bchH gene was introduced; format: in vivo; details: Nicotiana tabacum, read-out: Resistant level to test compound; for activity at 0.3 ppm: 0.30 ppm
Experimental: (§1) Then, according to the method described in Manual for Gene Manipulation of Plant (by Hirofumi UCHIMIYA, Kodan-sha Scientific, 1992), the gene was introduced into tobacco. Agrobacterium strain bearing plasmid pBIBCH was cultured at 28° C. overnight in LB medium and then leaf pieces of tobacco cultured sterilely were dipped in the liquid culture medium. The leaf pieces were cultured at room temperature for 2 days in Murashige-Skoog medium (MS-medium, described in Murasige T. and Skoog F., Physiol. Plant. (1962) 15, p 473) containing 0.8% agar, 0.1 mg/liter naphthalene acetic acid and 1.0 mg/liter benzyl aminopurine. Then, the leaf pieces were washed with sterilized water and cultured for 7 days on MS medium containing 0.8% agar, 0.1 mg/liter naphthalene acetic acid, 1.0 mg/liter benzyl aminopurine and 500 μg/ml cefotaxime. The leaf pieces were transplanted onto MS medium containing 0.8% agar, 0.1 mg/liter naphthalene acetic acid, 1.0 mg/liter benzyl aminopurine, 500 μg/ml cefotaxime and 100 μg/ml kanamycin (hereinafter referred to as selective MS medium) and cultured on the medium continuously for 4months with transplanting the tobacco leaf pieces onto fresh selective MS medium every 1 month. During culture, stem-leaf differentiated shoots were appeared from the tobacco leaf pieces, these shoots were transplanted to MS medium containing 0.8% agar, 300 μg/ml cefotaxime and 50 μg/ml kanamycin to induce roots to obtain regenerated plants. The resultant regenerated plant was transplanted and cultured on MS medium 0.8% agar and 50 μg/ml kanamycin to obtain tobacco plant into which bchH gene was introduced. Similarly, tobacco leaf pieces were infected with Agrobacterium strain bearing pNO to obtain regenerated plant from the tobacco leaf pieces and tobacco plant (hereinafter referred to as control recombinant tobacco).
(§2) The tobacco leaves into which bchH gene was introduced and control recombinant tobacco leaves obtained in Example 5 were collected and each leaf was divided into the right and left equivalent pieces along the main vein, respectively. To one piece was applied an aqueous solution containing 0.3 ppm PPO inhibitory-type herbicidal compound of Structure 8, while, to the other piece was not applied the compound. These leaf pieces were placed on MS medium containing 0.8% agar and allowed to stand at room temperature for 7 days in light place. Then, each leaf piece was ground with pestle and mortar in 5 ml of 80% aqueous acetone solution to extract chlorophyll. The extract liquid was diluted with 80% aqueous acetone solution and the absorbance was measured at 750 nm, 663 nm and 645 nm to calculate total chlorophyll content according to the method described by Macknney G., J. Biol. Chem. (1941) 140, p 315. The results obtained from 4 clones of tobacco into which bchH gene was introduced (BCH1 to 4) and control recombinant tobacco is shown in Table 4. In the table, the resistant level to the herbicidal compound was represented by percentages of the total chlorophyll content of leaf pieces treated with herbicidal compound to that of untreated leaf pieces.
(§3) The tobacco clone into which bchH gene was introduced and control recombinant tobacco were also treated in the same manner with the solution containing PPO inhibitory-type herbicidal compound represented by the above Structure 3, 7, 10, 11, 13, 17, 23, 24, 25, 27, 28, 30 or 35, and the resistant level to each herbicidal compound was measured. In the table, the resistant levels to the herbicidal compound were represented by percentages of the total chlorophyll content of leaf pieces treated with the herbicidal compound to that of untreated leaf pieces.

[2] = test system: control recombinant tobacco; test: Leaf piece chlorophyll test, control recombinant tobacco; format: in vivo; details: Nicotiana tabacum, read-out: Resistant level to test compound; for activity at 0.3 ppm: 0.30 ppm
Experimental: as §1, §2, §3
The level of resistance to PPO inhibitory type herbicidal compound represented by Structure 8 was confirmed quantitatively by testing tobacco into which the gene encoding the variant soybean PPO prepared in Example 13 was introduced according to the same manner as in Example 6. […]

[3] = bchH recombinant tobacco, treated vs untreated leaf pieces, Table 5
[4] = control recombinant tobacco, treated vs untreated leaf pieces, Table 5

CCOC(=O)C(C)OC(=O)c1cc(Oc2ccc(C(F)(F)F)cc2Cl)ccc1[N+](=O)[O-] (stereo not drawn) [Structure 3]
activity at 10 ppm [1, 3]: 114% | activity at 10 ppm [2, 4]: 9.94%

O=[N+]([O-])c1ccc(Oc2c(Cl)cc(Cl)cc2Cl)cc1 [Structure 7]
activity at 30 ppm ([1]; bchH recombinant tobacco, 30 ppm, treated vs untreated leaf pieces, Table 5): 89.3% | activity at 30 ppm ([2]; control recombinant tobacco, 30 ppm, treated vs untreated leaf pieces, Table 5): 8.62%

CCCCCOC(=O)COc1cc(N2C(=O)C3=C(CCCC3)C2=O)c(F)cc1Cl [Structure 10]
activity at 10 ppm [1, 3]: 84% | activity at 10 ppm [2, 4]: 14.9%

C#CCN1C(=O)COc2cc(F)c(N3C(=O)C4=C(CCCC4)C3=O)cc21 [Structure 11]
activity at 0.3 ppm [1, 3]: 78.1% | activity at 0.3 ppm [2, 4]: 5.51%

C#CCN1C(=O)COc2cc(F)c(-n3c(=O)cc(C(F)(F)F)n(C)c3=O)cc21 [Structure 17]
activity at 0.3 ppm [1, 3]: 80.4% | activity at 0.3 ppm [2, 4]: 14.3%

C#CCOc1cc(-n2nc3n(c2=O)CCCC3)c(Cl)cc1Cl [Structure 23]
activity at 3 ppm ([1]; bchH recombinant tobacco, 3.0 ppm, treated vs untreated leaf pieces, Table 5): 106% | activity at 3 ppm ([2]; control recombinant tobacco, 3.0 ppm, treated vs untreated leaf pieces, Table 5): 5.58%

C#CCOc1cc(-n2nc(C(C)(C)C)oc2=O)c(Cl)cc1Cl [Structure 24]
activity at 10 ppm [1, 3]: 129% | activity at 10 ppm [2, 4]: 5.18%

CC(C)Oc1cc(-n2nc(C(C)(C)C)oc2=O)c(Cl)cc1Cl [Structure 25]
activity at 10 ppm [1, 3]: 104% | activity at 10 ppm [2, 4]: 16%

CCOC(=O)COc1cc(-n2ncc(C(F)(F)F)c(C)c2=O)c(F)cc1Cl [Structure 27]
activity at 10 ppm [1, 3]: 86.8% | activity at 10 ppm [2, 4]: 16.8%

C#CCOc1cc(-n2ncc(C(F)(F)F)c(C)c2=O)c(F)cc1Cl [Structure 28]
activity at 0.3 ppm [1, 3]: 72.2% | activity at 0.3 ppm [2, 4]: 8.79%

CCOC(=O)COc1cc(-c2nn(C)c(OC(F)F)c2Cl)c(F)cc1Cl [Structure 30]
activity at 3 ppm [1]: 102% | activity at 3 ppm [2]: 4.24%

C#CCN1C(=O)COc2cc(F)c(-c3cnc(C(F)(F)F)n(C)c3=O)cc21 [Structure 35]
activity at 0.3 ppm [1, 3]: 83.3% | activity at 0.3 ppm [2, 4]: 17.4%

From patent US7973219B2, “Method for producing transgenic plants resistant to weed control compounds which disrupt the porphyrin pathways of plants” (Sumitomo Chemical Company, Limited, priority 1998, dated 2011)
